# Experimental data from ChEMBL document CHEMBL1201862, “PubChem BioAssay data set” (2004).
#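 Five concentrations, 48 hours, 96-well plates. GI50: concentration for 50% inhibition of growth.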 Calls of active or inactive are those of the source. Rule as the data show it: active = GI50 up to about 1.1 µM and inactive = higher.
# Columns and labels:
# Test in all cases: NCI-60 cell line screen, 48 h
# OVCAR-4 = system: OVCAR-4
# SW-620 = system: SW-620
# 786-0 = system: 786-0
# MDA-MB-231 = system: MDA-MB-231
# EKVX = system: EKVX
# SN12C = system: SN12C
# HCT-116 = system: HCT-116
# TK-10 = system: TK-10
# HOP-92 = system: HOP-92
# HOP-62 = system: HOP-62
# Hs-578T = system: Hs-578T
# HCC 2998 = system: HCC 2998
# UO-31 = system: UO-31
# A549 = system: A549
# OVCAR-5 = system: OVCAR-5
# RXF 393 = system: RXF 393
# NCI-H460 = system: NCI-H460
# MCF7 = system: MCF7
# MDA-N = system: MDA-N
# SK-MEL-28 = system: SK-MEL-28
# IGROV-1 = system: IGROV-1
# LOX IMVI = system: LOX IMVI
# M14 = system: M14
# COLO 205 = system: COLO 205
# HL-60 = system: HL-60
# UACC-257 = system: UACC-257
# ACHN = system: ACHN
# CCRF-CEM = system: CCRF-CEM
# HT-29 = system: HT-29
# SF-295 = system: SF-295
# SF-539 = system: SF-539
# BT-549 = system: BT-549
# NCI/ADR-RES = system: NCI/ADR-RES
# PC-3 = system: PC-3
# KM12 = system: KM12
# OVCAR-8 = system: OVCAR-8
# SK-MEL-5 = system: SK-MEL-5
# MDA-MB-435 = system: MDA-MB-435
# HCT-15 = system: HCT-15
# SNB-19 = system: SNB-19
# CAKI-1 = system: CAKI-1
# NCI-H23 = system: NCI-H23
# SK-OV-3 = system: SK-OV-3
# SF-268 = system: SF-268
# U-251 = system: U-251
# NCI-H522 = system: NCI-H522
# MOLT-4 = system: MOLT-4
# OVCAR-3 = system: OVCAR-3
# SK-MEL-2 = system: SK-MEL-2
# SNB-75 = system: SNB-75
# UACC-62 = system: UACC-62
# NCI-H226 = system: NCI-H226
# DU-145 = system: DU-145
# T47D = system: T47D
# Malme-3M = system: Malme-3M
# A498 = system: A498
# K562 = system: K562
# RPMI-8226 = system: RPMI-8226
# SR = system: SR
structure (smiles),measurement,setting,value
Cc1ccc(NC(=O)/C(Cc2nc3ccc([N+](=O)[O-])cc3nc2O)=N\NC(=O)C[n+]2ccccc2)c(C)c1,GI50,OVCAR-4,23 µM (inactive)
same,GI50,SW-620,61.1 µM (inactive)
same,GI50,786-0,27.9 µM (inactive)
same,GI50,MDA-MB-231,18.4 µM (inactive)
same,GI50,EKVX,26.7 µM (inactive)
same,GI50,SN12C,32.1 µM (inactive)
same,GI50,HCT-116,36.2 µM (inactive)
same,GI50,TK-10,21.2 µM (inactive)
same,GI50,HOP-92,37.5 µM (inactive)
same,GI50,HOP-62,38.9 µM (inactive)
same,GI50,Hs-578T,86.1 µM (inactive)
same,GI50,HCC 2998,> 100 µM (inactive)
same,GI50,UO-31,18.4 µM (inactive)
same,GI50,A549,23.3 µM (inactive)
same,GI50,OVCAR-5,> 100 µM (inactive)
same,GI50,RXF 393,4.06 µM (inactive)
same,GI50,NCI-H460,26.8 µM (inactive)
same,GI50,MCF7,38.5 µM (inactive)
same,GI50,MDA-N,> 100 µM (inactive)
same,GI50,SK-MEL-28,77.4 µM (inactive)
same,GI50,IGROV-1,35.4 µM (inactive)
same,GI50,LOX IMVI,59 µM (inactive)
same,GI50,M14,89.1 µM (inactive)
same,GI50,COLO 205,43.5 µM (inactive)
same,GI50,HL-60,30 µM (inactive)
same,GI50,UACC-257,49.4 µM (inactive)
same,GI50,ACHN,20.5 µM (inactive)
same,GI50,CCRF-CEM,26.6 µM (inactive)
same,GI50,HT-29,> 100 µM (inactive)
same,GI50,SF-295,58.1 µM (inactive)
same,GI50,SF-539,77.1 µM (inactive)
same,GI50,BT-549,> 100 µM (inactive)
same,GI50,NCI/ADR-RES,40.9 µM (inactive)
same,GI50,PC-3,39 µM (inactive)
same,GI50,KM12,74.6 µM (inactive)
same,GI50,OVCAR-8,30.3 µM (inactive)
same,GI50,SK-MEL-5,16.9 µM (inactive)
same,GI50,MDA-MB-435,97.3 µM (inactive)
same,GI50,HCT-15,49.4 µM
same,GI50,SNB-19,83.4 µM (inactive)
same,GI50,CAKI-1,34.7 µM (inactive)
same,GI50,NCI-H23,65.6 µM (inactive)
same,GI50,SK-OV-3,22.4 µM (inactive)
same,GI50,SF-268,67.5 µM (inactive)
same,GI50,U-251,53.6 µM (inactive)
same,GI50,NCI-H522,19.4 µM (inactive)
same,GI50,MOLT-4,30.7 µM (inactive)
same,GI50,OVCAR-3,23.1 µM (inactive)
same,GI50,SK-MEL-2,39.9 µM (inactive)
same,GI50,SNB-75,97.3 µM (inactive)
same,GI50,UACC-62,55.1 µM (inactive)
same,GI50,NCI-H226,74.6 µM (inactive)
same,GI50,DU-145,32.1 µM (inactive)
COC(=O)Cc1ccc2c(c1)Sc1ccc(CC(=O)OC)cc1N2C,GI50,OVCAR-4,28.3 µM (inactive)
same,GI50,SW-620,39.1 µM (inactive)
same,GI50,786-0,25.5 µM (inactive)
same,GI50,MDA-MB-231,13.4 µM (inactive)
same,GI50,T47D,32.2 µM (inactive)
same,GI50,EKVX,42 µM (inactive)
same,GI50,SN12C,33.7 µM (inactive)
same,GI50,HCT-116,24.1 µM (inactive)
same,GI50,TK-10,58.3 µM (inactive)
same,GI50,HOP-92,24.6 µM (inactive)
same,GI50,HOP-62,27.4 µM (inactive)
same,GI50,Hs-578T,39.3 µM (inactive)
same,GI50,HCC 2998,54 µM (inactive)
same,GI50,UO-31,16.8 µM (inactive)
same,GI50,A549,24 µM (inactive)
same,GI50,OVCAR-5,> 65.5 µM (inactive)
same,GI50,RXF 393,25.1 µM (inactive)
same,GI50,Malme-3M,23.8 µM (inactive)
same,GI50,NCI-H460,33.1 µM (inactive)
same,GI50,MCF7,9.57 µM (inactive)
same,GI50,SK-MEL-28,38.3 µM (inactive)
same,GI50,IGROV-1,45.8 µM (inactive)
same,GI50,LOX IMVI,14.3 µM (inactive)
same,GI50,M14,30.3 µM (inactive)
same,GI50,COLO 205,18.2 µM (inactive)
same,GI50,HL-60,20.7 µM (inactive)
same,GI50,A498,40.6 µM (inactive)
same,GI50,K562,6.75 µM (inactive)
same,GI50,UACC-257,30.5 µM (inactive)
same,GI50,ACHN,38 µM (inactive)
same,GI50,CCRF-CEM,22 µM (inactive)
same,GI50,HT-29,10.8 µM (inactive)
same,GI50,RPMI-8226,39.1 µM (inactive)
same,GI50,SF-295,22.8 µM (inactive)
same,GI50,SF-539,36.3 µM (inactive)
same,GI50,BT-549,16.1 µM (inactive)
same,GI50,NCI/ADR-RES,16.3 µM (inactive)
same,GI50,PC-3,25.8 µM (inactive)
same,GI50,KM12,8.07 µM (inactive)
same,GI50,OVCAR-8,34.3 µM (inactive)
same,GI50,SK-MEL-5,12.3 µM (inactive)
same,GI50,MDA-MB-435,6.4 µM (inactive)
same,GI50,HCT-15,14.7 µM
same,GI50,SNB-19,44 µM (inactive)
same,GI50,CAKI-1,11.6 µM (inactive)
same,GI50,NCI-H23,28.6 µM (inactive)
same,GI50,SK-OV-3,38.3 µM (inactive)
same,GI50,SF-268,38.3 µM (inactive)
same,GI50,SR,14.4 µM (inactive)
same,GI50,U-251,19.4 µM (inactive)
same,GI50,NCI-H522,9.75 µM (inactive)
same,GI50,MOLT-4,9.66 µM (inactive)
same,GI50,OVCAR-3,23.3 µM (inactive)
same,GI50,SK-MEL-2,51.4 µM (inactive)
same,GI50,SNB-75,> 47.2 µM (inactive)
same,GI50,UACC-62,23.9 µM (inactive)
same,GI50,NCI-H226,49.5 µM (inactive)
same,GI50,DU-145,> 71.6 µM (inactive)
